We go through 20 compounds from patent US20250002475A1 (EPICS THERAPEUTICS, priority 2023, published 2025).

pIC50: −log10 of the molar value.

Assay [1] has as its target T1, recombinant METTL3/METTL14 complex (Homo sapiens, UniProt Q86U44).
T1 construct: purchased Active Motif 311970; host or cells: Sf9 cells
Description: METTL3/14 Scintillation Proximity Assay (SPA), RNA methyltransferase activity. The settings on record: 5.31 nM METTL3/14 complex, 250 nM RNA substrate, 1 μM 3H-SAM, 90 min; for compounds marked * best of the two separated forms. It is filed as biochemical.

Another assay deals with Caov-3 cells. The assay is described as follows: Caov-3 cellular viability assay (ATP-Lite, 72 h). It is filed as cell-based. The conditions noted are these: Homo sapiens, ATP-Lite luminescence, % viability relative to DMSO. A digest of the protocol:
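IC50 values come from concentration-response fits of luminescent ATP content (ATP-Lite One Step), normalised as % viability versus DMSO. Compound exposure was 72 h at 37 °C in RPMI-1640/10% FBS with 0.1% final DMSO. Wells held 10000 cells each.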

The test system of the next assay is Kasumi-1 cells. The assay is described as follows: Kasumi-1 cellular viability assay (ATP-Lite, 72 h). The settings on record: Homo sapiens, ATP-Lite luminescence, % viability relative to DMSO. In kind it is cell-based. A digest of the protocol:
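Viability was read by ATP-Lite One Step luminescence after 72 h compound treatment at 37 °C/5% CO2, normalised to DMSO control, with IC50 fitted from concentration-response. Cells were Kasumi-1 (AML FAB M2) at 15000 per well in RPMI-1640/10% FBS, 0.1% DMSO final.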

T1 sequence (Q86U44 whole entry): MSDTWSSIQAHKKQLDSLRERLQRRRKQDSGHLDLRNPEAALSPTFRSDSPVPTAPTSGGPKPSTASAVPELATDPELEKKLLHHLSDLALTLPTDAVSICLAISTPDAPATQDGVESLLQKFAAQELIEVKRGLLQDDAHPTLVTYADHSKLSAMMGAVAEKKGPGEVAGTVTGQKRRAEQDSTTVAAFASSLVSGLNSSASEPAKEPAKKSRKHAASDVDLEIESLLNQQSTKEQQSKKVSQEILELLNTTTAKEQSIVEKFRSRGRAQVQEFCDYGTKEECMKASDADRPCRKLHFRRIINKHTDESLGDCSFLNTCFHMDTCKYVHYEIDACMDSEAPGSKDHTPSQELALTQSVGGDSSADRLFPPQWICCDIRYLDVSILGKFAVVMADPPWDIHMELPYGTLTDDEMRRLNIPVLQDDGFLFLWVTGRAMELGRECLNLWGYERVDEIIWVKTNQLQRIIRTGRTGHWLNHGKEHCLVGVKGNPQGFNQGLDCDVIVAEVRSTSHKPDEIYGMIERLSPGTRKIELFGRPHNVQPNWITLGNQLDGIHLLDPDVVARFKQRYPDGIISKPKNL
T1 sequence (Q9HCE5 whole entry partner): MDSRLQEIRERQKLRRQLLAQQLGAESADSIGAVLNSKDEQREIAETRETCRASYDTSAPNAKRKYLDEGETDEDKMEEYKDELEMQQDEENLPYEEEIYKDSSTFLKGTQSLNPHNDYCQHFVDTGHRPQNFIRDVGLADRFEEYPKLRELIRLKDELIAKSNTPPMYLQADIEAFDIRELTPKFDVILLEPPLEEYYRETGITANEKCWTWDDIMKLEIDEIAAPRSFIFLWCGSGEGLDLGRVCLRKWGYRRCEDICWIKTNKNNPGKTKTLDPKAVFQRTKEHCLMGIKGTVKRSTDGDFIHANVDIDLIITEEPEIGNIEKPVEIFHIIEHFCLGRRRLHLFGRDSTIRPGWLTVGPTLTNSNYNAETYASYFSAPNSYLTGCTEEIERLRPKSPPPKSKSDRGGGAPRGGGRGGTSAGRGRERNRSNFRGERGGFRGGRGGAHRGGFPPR

As for `COc1cncc(-c2cn(C3(c4ccc(N5CCC[C@@H](NCC6CCC6)C5)cc4)COC3)nn2)c1` [Compound 134, (R)-N-(cyclobutylmethyl)-1-(4-(3-(4-(5-methoxypyridin-3-yl)-1H-1,2,3-triazol-1-yl)oxetan-3-yl)phenyl)piperidin-3-amine], the negative logarithm of the IC50 (pIC50) in assay [1] is at least 7.30; with Caov-3 cells it was at least 6.30; with Kasumi-1 cells, at least 6.30.
For `c1cc(N2CCC[C@@H](NCC3CC3)C2)ncc1C1(n2cc(-c3cncc(N4CCCC4)n3)nn2)COC1` [Compound 207, (R)-N-(cyclopropylmethyl)-1-(5-(3-(4-(6-(pyrrolidin-1-yl)pyrazin-2-yl)-1H-1,2,3-triazol-1-yl)oxetan-3-yl)pyridin-2-yl)piperidin-3-amine], the negative-log IC50 (pIC50) in assay [1] was at least 7.30; in the assay on Caov-3 cells it was at least 6.30; in the assay on Kasumi-1 cells, at least 6.30.
Consider `COc1cc(-c2cn(Cn3ccc(N4CCCC(NCC5CCC5)C4)cc3=O)nn2)c2cn[nH]c2c1` (stereo not drawn) [Compound 027, 4-(3-((cyclobutylmethyl)amino)piperidin-1-yl)-1-((4-(6-methoxy-1H-indazol-4-yl)-1H-1,2,3-triazol-1-yl)methyl)pyridin-2(1H)-one], for which the pIC50 is at least 7.30 in assay [1], at least 6.30 with Caov-3 cells and at least 6.30 in the assay with Kasumi-1 cells.
`c1cc(C2(n3cc(-c4cncc(N5CCC6(CC6)C5)n4)nn3)COC2)ncc1N1CCC[C@@H](NCC2CC2)C1` [Compound 222, (R)-1-(6-(3-(4-(6-(5-azaspiro[2.4]heptan-5-yl)pyrazin-2-yl)-1H-1,2,3-triazol-1-yl)oxetan-3-yl)pyridin-3-yl)-N-(cyclopropylmethyl)piperidin-3-amine]: the results for the pIC50 (in assay [1]; in the assay on Caov-3 cells; in the assay with Kasumi-1 cells) were at least 7.30, at least 6.30 and at least 6.30, respectively.
`COc1cncc(-n2cc(Cn3ccc(N4CCC[C@@H](NCC5CCC5)C4)cc3=O)cn2)c1` [Compound 107, (R)-4-(3-((cyclobutylmethyl)amino)piperidin-1-yl)-1-((1-(5-methoxypyridin-3-yl)-1H-pyrazol-4-yl)methyl)pyridin-2(1H)-one]: the results for the pIC50 (in assay [1]; with Caov-3 cells; in the assay on Kasumi-1 cells) were at least 7.30, at least 6.30 and at least 6.30, respectively.
On to `COc1cc(-c2cn(Cc3ccc(N4CCC[C@@H](NCC5CCC5)C4)nc3)nn2)c2cn[nH]c2c1` [Compound 040, (R)-N-(cyclobutylmethyl)-1-(5-((4-(6-methoxy-1H-indazol-4-yl)-1H-1,2,3-triazol-1-yl)methyl)pyridin-2-yl)piperidin-3-amine], for which the pIC50 in assay [1] is at least 7.30; in the assay with Caov-3 cells, at least 6.30; with Kasumi-1 cells it was at least 6.30.
Regarding `c1cc2cc(-c3cn(Cc4ccc(N5CCC[C@@H](NCC6CCC6)C5)nn4)nn3)cnc2[nH]1` [Compound 009, (R)-1-(6-((4-(1H-pyrrolo[2,3-b]pyridin-5-yl)-1H-1,2,3-triazol-1-yl)methyl)pyridazin-3-yl)-N-(cyclobutylmethyl)piperidin-3-amine], the pIC50 was at least 7.30 in assay [1], 5.30 to 6.30 in the assay with Caov-3 cells and 5.30 to 6.30 in the assay with Kasumi-1 cells.
For the compound `CC(c1nnc(-c2cncc(N3CCCC3)n2)s1)n1ccc(N2CCC[C@@H](NCC3CC3)C2)cc1=O` (stereo partly drawn) [Compound 228, 4-((R)-3-((cyclopropylmethyl)amino)piperidin-1-yl)-1-(1-(5-(6-(pyrrolidin-1-yl)pyrazin-2-yl)-1,3,4-thiadiazol-2-yl)ethyl)pyridin-2(1H)-one], the pIC50 in assay [1] is at least 7.30; in the assay with Caov-3 cells it was at least 6.30; in the assay on Kasumi-1 cells, at least 6.30.
On to `COc1cc(-c2cn(Cc3ccc(N4CCC[C@@H](NCC5CCC5)C4)cc3)nn2)c2cn[nH]c2c1` [Compound 123, (R)-N-(cyclobutylmethyl)-1-(4-((4-(6-methoxy-1H-indazol-4-yl)-1-1,2,3-triazol-1-yl)methyl)phenyl)piperidin-3-amine], for which the pIC50 was at least 7.30 in assay [1], at least 6.30 with Caov-3 cells and at least 6.30 with Kasumi-1 cells.
`COc1cncc(-c2cn(C(C)c3ccc(N4CCC[C@@H](NCC5CCC5)C4)cn3)cn2)c1` (stereo partly drawn) [Compound 276, (3R)—N-(cyclobutylmethyl)-1-(6-(1-(4-(5-methoxypyridin-3-yl)-1H-imidazol-1-yl)ethyl)pyridin-3-yl)piperidin-3-amine]: the negative-log IC50 (pIC50) in assay [1] was at least 7.30; in the assay with Caov-3 cells, at least 6.30; with Kasumi-1 cells it was 5.30 to 6.30.
For `CC(n1cc(-c2cncc(N3CC[C@@H](F)C3)n2)nn1)n1ccc(N2CCC[C@@H](NCC3CC3)C2)cc1=O` (single isomer, unassigned) [Compound 245] the same measures were at least 7.30, at least 6.30 and at least 6.30.
For the compound `CN(C)c1cncc(-c2cn(C3(c4ccc(N5CCC[C@@H](NCC6CC6)C5)cn4)COC3)nn2)n1` [Compound 192, (R)-6-(1-(3-(5-(3-((cyclopropylmethyl)amino)piperidin-1-yl)pyridin-2-yl)oxetan-3-yl)-1H-1,2,3-triazol-4-yl)-N,N-dimethylpyrazin-2-amine], the figures for the pIC50 (in assay [1]; with Caov-3 cells; in the assay with Kasumi-1 cells) were at least 7.30, at least 6.30 and at least 6.30, respectively.
`CC(C)CN[C@@H]1CCCN(c2ccc(C3(n4cc(-c5cncc(C6CC6)c5)nn4)COC3)nc2)C1` [Compound 329, (R)-1-(6-(3-(4-(5-cyclopropylpyridin-3-yl)-1H-1,2,3-triazol-1-yl)oxetan-3-yl)pyridin-3-yl)-N-isobutylpiperidin-3-amine]: the negative logarithm of the IC50 (pIC50) in assay [1] is at least 7.30; with Caov-3 cells it was at least 6.30; in the assay with Kasumi-1 cells, at least 6.30.
Turning to `COc1cc(-c2cn(Cc3ccc(N4CCCC(N5CCC(C)(C)CC5)C4)nn3)nn2)c2cn[nH]c2c1` (stereo not drawn) [Compound 006, 4-(1-((6-(4,4-dimethyl-[1,3′-bipiperidin]-1′-yl)pyridazin-3-yl)methyl)-1H-1,2,3-triazol-4-yl)-6-methoxy-1H-indazole], the figures for the negative logarithm of the IC50 (pIC50) (in assay [1]; with Caov-3 cells; in the assay with Kasumi-1 cells) were at least 7.30, 5.30 to 6.30 and 5.30 to 6.30, respectively.
Consider `FC1(F)CC(CN[C@@H]2CCCN(c3ccc(C4(n5cc(-c6cncc(C7CC7)c6)nn5)COC4)nc3)C2)C1` [Compound 341, (R)-1-(6-(3-(4-(5-cyclopropylpyridin-3-yl)-1H-1,2,3-triazol-1-yl)oxetan-3-yl)pyridin-3-yl)-N-((3,3-difluorocyclobutyl)methyl)piperidin-3-amine], for which the negative logarithm of the IC50 (pIC50) in assay [1] is at least 7.30; in the assay with Caov-3 cells, at least 6.30; with Kasumi-1 cells it was at least 6.30.
As to `COc1cc(-c2cn(Cc3ccc(N4CCCC(NCC56CC(C)(C5)C6)C4)nn3)nn2)c2cn[nH]c2c1` (stereo not drawn) [Compound 020, 1-(6-((4-(6-methoxy-1H-indazol-4-yl)-1H-1,2,3-triazol-1-yl)methyl)pyridazin-3-yl)-N-((3-methylbicyclo[1.1.1]pentan-1-yl)methyl)piperidin-3-amine], the values for the pIC50 (in assay [1]; in the assay with Caov-3 cells; in the assay with Kasumi-1 cells) were at least 7.30, 5.30 to 6.30 and 5.30 to 6.30, respectively.
Take `CN(C)c1cncc(-c2cn(C3(c4ccc(N5CCC[C@@H](NCC6CCC6)C5)cn4)COC3)nn2)c1` [Compound 149, (R)-5-(1-(3-(5-(3-((cyclobutylmethyl)amino)piperidin-1-yl)pyridin-2-yl)oxetan-3-yl)-1H-1,2,3-triazol-4-yl)-N,N-dimethylpyridin-3-amine]: the negative logarithm of the IC50 (pIC50) in assay [1] is at least 7.30; in the assay on Caov-3 cells, at least 6.30; with Kasumi-1 cells, at least 6.30.
With `CC(n1cc(-c2cncc(N3CC4(CCC4)C3)c2)nn1)n1ccc(N2CCC[C@@H](NCC3CCC3)C2)cc1=O` (single isomer, unassigned) [Compound 193], the pIC50 was at least 7.30 in assay [1], at least 6.30 in the assay on Caov-3 cells and at least 6.30 in the assay on Kasumi-1 cells.
For `COc1cc(-c2nnn(C(C)n3ccc(N4CCC[C@@H](NCC5CCC5)C4)cc3=O)n2)c2cn[nH]c2c1` (single isomer, unassigned) [Compound 210], the negative logarithm of the IC50 (pIC50) in assay [1] was at least 7.30; in the assay on Caov-3 cells, at least 6.30; in the assay with Kasumi-1 cells, 5.30 to 6.30.
For `CC(n1cc(-c2cncc(N3CCN(C)CC3)c2)nn1)n1ccc(N2CCC[C@@H](NCC3CCC3)C2)cc1=O` (single isomer, unassigned) [Compound 168] the same measures were at least 7.30, at least 6.30 and 5.30 to 6.30.
